The test system of one data set is HOP-92. In words: NCI 60 cell lines, SRB assay: HOP-92. The note with it: for CC50: read-out: LC50.
For another data set, the system named is CAKI-1. Description: NCI 60 cell lines, SRB assay: CAKI-1. The class given is cell-based, human. The note with it: CAKI-1 (Renal Cancer), 48 hours. As to the method: The human tumor cell lines were grown in RPMI 1640 medium containing 5% fetal bovine serum (FBS) and 2 mM L-glutamine. The cells were inoculated into 96 well microtiter plates in 100 μL volumes at plating densities ranging from 5000 to 40000 cells/well depending on the doubling time of each individual cell line. After cell inoculation, the microtiter plates were incubated at 37° C., 5% CO2, 95% air, and 100% relative humidity for 24 hours prior to addition of the test compound. The following day, two plates of each cell line were fixed in situ with TCA to represent a measurement of cell population for each cell line at the time of sample addition (Tz). Each of the test compounds was dissolved in dimethyl sulfoxide at 400-times the desired final maximum test concentration, and the resulting solutions were stored frozen prior to use. At the time of sample addition, an aliquot of frozen concentrate was thawed and diluted to twice the desired final maximum test concentration with complete medium containing 50 μg/mL gentamicin. Additional four 10-fold serial dilutions were prepared to provide a total of five sample concentrations plus control. Aliquots of 100 μL of these different concentrations were added to the appropriate microtiter wells already containing 100 μL of medium, making up the required final sample concentrations. […] Bound stain was subsequently solubilized with 10 mM trizma base, and the absorbance was read on an automated plate reader at a wavelength of 515 nm. […] Using the seven absorbance measurements [time zero (Tz), control growth (C), and test growth in the presence of drug at the five concentration levels (Ti)], the percentage growth was calculated at each of the sample concentration levels. […] The test compound concentration resulting in total growth inhibition was calculated from Ti=Tz. […] In the event when the effect was not reached or was exceeded, the value for the respective parameter was expressed as greater or less than the maximum or minimum concentration tested.

A further data set deals with MDA-MB-231/ATCC. Description: cells. The note with it: Homo sapiens, MDA-MB-231, 48 h; for CC50: read-out: LC50.
For a further data set, the system named is T-47D. In words: cells. The note with it: Homo sapiens, T47D, 48 h.
The test system of a further data set is SK-MEL-5. In words: cells. The note with it: Homo sapiens, SK-MEL-5, 48 h; for CC50: read-out: LC50.
The next data set concerns MCF7. In words: cells. The note with it: Homo sapiens, MCF7, 48 h; for CC50: read-out: LC50.
A further data set relates to PC-3. In words: cells. The note with it: Homo sapiens, PC-3, 48 h.
A further data set has as its system CCRF-CEM. In words: cells. The note with it: Homo sapiens, 48 h.
The test system of a further data set is RXF 393. In words: cells. The note with it: Homo sapiens, RXF 393, 48 h.
A further data set relates to SN12C. In words: cells. The note with it: Homo sapiens, 48 h; for CC50: read-out: LC50.
The test system of the next data set is COLO 205. Description: cells. The note with it: Homo sapiens, COLO 205, 48 h; for CC50: read-out: LC50.
The test system of the next data set is SK-MEL-2. Description: cells. The note with it: Homo sapiens, SK-MEL-2, 48 h.
The test system of another data set is SW-620. In words: cells. The note with it: Homo sapiens, SW-620, 48 h; for CC50: read-out: LC50.
A further data set has as its system IGROV1. Description: cells. The note with it: Homo sapiens, IGROV-1, 48 h.
The subject of the next data set is RPMI-8226. Description: cells. The note with it: Homo sapiens, RPMI-8226, 48 h.
A further data set concerns SK-OV-3. Description: cells. The note with it: Homo sapiens, SK-OV-3, 48 h; for CC50: read-out: LC50.
A further data set concerns ACHN. In words: cells. The note with it: Homo sapiens, 48 h; for CC50: read-out: LC50.
Where [1] appears, read: HOP-92 (Non-Small Cell Lung Cancer), 48 hours, SRB.

Where two headings read alike, the source gives them in different places.

Take `CN(C)c1cccc2c(S(=O)(=O)NCCCCCCCCCCOc3ccc4c(c3)[N+]([O-])=C3C4=C[C@@]45NC(=O)C6(CCCN6C4=O)CC5C3(C)C)cccc12` (stereo partly drawn) [Dansyl Analogue]: in the data set with HOP-92 (setting [1]), halving of growth (GI50) required 224 nM, the TGI was 867 nM and the CC50 worked out at 12700 nM. In the data set on CAKI-1, this compound returned a GI50 of 426 nM and a TGI of 2790 nM. Besides, the CC50 in the data set on CAKI-1 (read-out: LC50 (the source's name)) amounted to 20800 nM.

Consider `[2H]On1c2c(c3ccc4c(c31)C=CC(C)(C)O4)C(OC([2H])([2H])[2H])[C@@]13NC(=O)C4(CCCN4C1=O)CC3C2(C)C` (stereo partly drawn) [Deuterated Methanol Adduct], for which the TGI with HOP-92 (setting [1]) is 1300 nM. The GI50 in the data set with HOP-92 (Homo sapiens, HOP-92, 48 h) was determined as 222 nM; with MDA-MB-231/ATCC, 538 nM; in the data set with T-47D, 142 nM; in the data set on SK-MEL-5, 1410 nM; in the data set with MCF7, 348 nM; with PC-3, 619 nM. Further, the GI50 in the data set on CCRF-CEM amounted to 185 nM; in the data set with RXF 393 it was 283 nM; in the data set with SN12C, 1120 nM; in the data set on COLO 205, 336 nM; with SK-MEL-2 it was 901 nM; with SW-620, 375 nM. Further, the GI50 in the data set on IGROV1 was found to be 743 nM; in the data set on RPMI-8226, 40.2 nM; with SK-OV-3 it was 1010 nM; with ACHN, 1270 nM. The CC50 with HOP-92 (Homo sapiens, HOP-92, 48 h) worked out at 4620 nM; in the data set on MDA-MB-231/ATCC, 4320 nM; in the data set with SK-MEL-5 it was 5230 nM; with MCF7, 4560 nM; in the data set on PC-3 (read-out: LC50) it was 5120 nM; with CCRF-CEM (read-out: LC50), 4600 nM. Besides, the CC50 amounted to 2050 nM in the data set on RXF 393 (read-out: LC50); 4820 nM in the data set on SN12C; 4450 nM in the data set with COLO 205; 5390 nM in the data set on SK-MEL-2 (read-out: LC50); 4900 nM in the data set on SW-620; 4680 nM in the data set on IGROV1 (read-out: LC50). The CC50 with RPMI-8226 (read-out: LC50) stood at 3300 nM; in the data set on SK-OV-3, 4650 nM; in the data set with ACHN, 5030 nM.

Take `Cc1cc(C)cc(-c2ccc3c(c2)[N+]([O-])=C2C3=C[C@@]34NC(=O)C5(CCCN5C3=O)CC4C2(C)C)c1` (stereo partly drawn) [Biphenyl Analogue]: the concentration for 50% growth inhibition (GI50) in the data set on MDA-MB-231/ATCC worked out at 240 nM; with T-47D it was 57.6 nM; in the data set with SK-MEL-5, 166 nM; with MCF7 it was 212 nM; in the data set on CCRF-CEM, 105 nM; in the data set with SN12C it was 214 nM. Besides, the GI50 in the data set with COLO 205 was determined as 128 nM; with SW-620, 151 nM; in the data set on RPMI-8226, 10.2 nM; with SK-OV-3 it was 300 nM; in the data set on ACHN, 214 nM. For the same compound, the CC50 is 3760 nM in the data set with MDA-MB-231/ATCC; 629 nM in the data set on SK-MEL-5; 5510 nM in the data set on MCF7; 2520 nM in the data set on SN12C; 526 nM in the data set with COLO 205; 806 nM in the data set with SW-620. Also, the CC50 came to 3450 nM in the data set with SK-OV-3 and 2260 nM in the data set on ACHN.
